Reference: patent US4923865A, “Substituted 1-(1H-imidazol-4-yl)alkyl-benzamides as anti-ischemics and as alpha-2-adrenergic receptor agonists” (U C B Societe Anonyme, priority 1988, dated 1990)
Like-named read-outs stand apart in the source and are kept apart here.

How the values were obtained:
myocardial ischemia = experiment: Artificially induced acute coronary insufficiency in an awake dog (ST-segment elevation); format: in vivo; conditions: Canis lupus familiaris, 0.1 h, intravenous, 6 min coronary occlusion, groups of ten animals, read-out: DE20 (dose producing a mean reduction of at least 20% of the ST-segment elevation)
Text: Because of the reduction in the oxygen supply which results from this, the occlusion produces myocardial ischemia which is expressed on the electrocardiogram by a reproducible and quantifiable ST-segment elevation. The anti-ischemic action of a compound results in a reduction of the magnitude of the ST-segment elevation. (P. R. MAROKO and E. BRAUNWALD, Circulation, 53, (1976, Suppl. I), 162-168; S. E. EPSTEIN et al., Circulation, 53, (1976, Suppl. I), 191-197).

[1] = biological target: T1, presynaptic α2 -adrenergic receptors (Cavia porcellus, UniProt Q60474); experiment: Stimulation of the isolated guinea-pig atria (reduction in tachycardia); conditions: isolated guinea-pig atria, electrical stimulation; read-out: IC30 (30% reduction in the maximum tachycardia)
T1 construct: Stimulation of a guinea-pig ileum; from tissue; host or cells: guinea-pig ileum longitudinal muscle strips
T1 sequence (Q60474 1-464): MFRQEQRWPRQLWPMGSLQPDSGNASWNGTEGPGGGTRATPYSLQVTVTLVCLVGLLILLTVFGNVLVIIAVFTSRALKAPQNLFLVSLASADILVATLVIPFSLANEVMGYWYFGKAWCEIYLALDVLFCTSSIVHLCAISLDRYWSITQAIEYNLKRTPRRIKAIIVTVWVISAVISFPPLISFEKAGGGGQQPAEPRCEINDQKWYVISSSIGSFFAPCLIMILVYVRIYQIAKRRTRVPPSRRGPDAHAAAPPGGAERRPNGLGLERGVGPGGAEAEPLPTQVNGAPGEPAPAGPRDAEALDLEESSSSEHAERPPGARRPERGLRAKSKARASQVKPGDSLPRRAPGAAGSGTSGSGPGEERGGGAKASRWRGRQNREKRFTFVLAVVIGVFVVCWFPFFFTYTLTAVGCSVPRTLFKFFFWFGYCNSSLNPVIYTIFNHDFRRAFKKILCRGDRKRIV
Text: (b) Stimulation of the isolated guinea-pig atria. The release of noradrenalin at the level of the nerve endings is mediated by a feedback regulating mechanism through the presynaptic α2 -adrenergic receptors. […] Ed. D. S. DAVIES, J. L. REID, Pitman, London.
The electrical stimulation of the isolated guinea-pig atria induces a release of noradrenalin which results in an increase in the rate of the heart beat (tachycardia). This tachycardia is inhibited by an α2 -agonist such as, for example, clonidine, in a proportion which depends on the dose of the agonist used. The action of the α2 -agonist may be limited in the presence of an α2 -specific antagonist such as α-yohimbine.
The in vitro activity of the compounds of the invention on the presynaptic α2 -adrenergic receptors has been studied on the isolated guinea-pig atria, electrically stimulated according to the method described by I. C. MEDGETT et al., Naunyn-Schmiedeberg's Arch. Pharmacol. 304, (1978), 215-221. The compound to be studied is tested in increasing concentrations ranging from 10^-10 to 10^-3 mole/l. The concentration (IC30 in mole/l) which causes a 30% reduction in the maximum tachycardia obtained initially during the electrical stimulation of the atria in the absence of the compound to be tested, is determined.
On the other hand, in the presence of a concentration of 10^-6 mole/l of α-yohimbine, the concentration of compound A necessary to obtain a reduction of 30% in the tachycardia is greater than 10^-7 mole/l.

male NMRI mice = experiment: Toxicity, Irwin's test (lethal dose); format: in vivo; conditions: intraperitoneal
Experimental: 5. Toxicity. The toxicity of the compounds according to the present invention has been determined in male NMRI mice by means of Irwin's test (S. IRWIN, Psychopharmacologia, 13, (1968), 222-257).
Progressive doses of the test compound are administered intraperitoneally to groups of three mice until the lethal dose is reached (dose causing the death of two out of three animals within 48 hours). In Table IX below, the lethal dose in mg/kg found for the compounds of the invention is given. It can be seen from this Table that the compounds of the invention are not very toxic.

[2] = tested on: stenosis at the level of a coronary artery; experiment: Effort trial on a moving belt in dogs with coronary artery stenosis; format: in vivo, dog; conditions: maximum effort at 12 Km/h for 1 minute
Experimental: (b) Effort trial on a moving belt. In this test, a group of at least four dogs is used (equipped with intracardiac electrodes), the dogs having an organic stenosis at the level of a coronary artery. This stenosis causes imbalance between the demand and supply of oxygen when the animal is required to make an effort. This imbalance is expressed on the electrocardiogram by an increase in the ST-segment.
In the trial, the dog runs at a speed of 12 km/h on a moving belt having a slope of 15°. This maximum effort is required for one minute. During the trial, the increase in the ST-segment is recorded, together with the natural increase in the pulse rate. The experiment is repeated at least four times, and the mean of the values obtained is taken as reference (100%) for the group of animals. The animals are then allowed to rest for a minimum of 24 hours before being subjected to a new effort trial under the influence of the compound to be studied.
The compound to be studied is administered slowly (over 1 minute) by intravenous injection 5 minutes before the new effort trial. In the course of the latter, the variations in the same parameters are recorded.

[3] = biological target: T1, presynaptic α2 -adrenergic receptors; experiment: Inhibition of the contraction of electrically stimulated guinea-pig ileum
Text: (c) Stimulation of a guinea-pig ileum. Longitudinal muscles strips attached to an isometric strain gauge are suspended in Tyrode's solution and are stretched under a tension of 1 g (G. M. DREW. Brit. J. Pharmacol. 64, (1978), 293-300; M. ANDREJAK et al., Naunyn-Schmiedelberg's Arch. Pharmacol. 314, (1980), 83-87).
Electrical stimulation of the parasympathetic nerves associated with the ileum fragments causes a contraction of the muscle. This contraction is reduced in the presence of a presynaptic α2 -agonist and the magnitude by which the contraction is reduced depends on the concentration of the agonist used. This effect is antagonized by the simultaneous presence of an α2 -antagonist such as α-yohimbine. The compounds to be studied have been tested at increasing concentrations ranging from 10^-10 to 10^-3 mole/l.
The concentration (IC50 in mole/l) that reduces by 50% the intensity of the contraction of the muscle is determined.
In the presence of α-yohimbine at a concentration of 10^-6 mole/l, the concentration of the compounds A or B, for example, that is required for reducing muscle contraction intensity by 50% is higher, and becomes greater than 10^-6 mole/l, which gives additional confirmation that the compounds of the invention act really at the level of the presynaptic α2 -adrenergic receptors.

[4] = guinea-pig ileum, electrical stimulation, read-out: IC50 (reduces by 50% the intensity of the contraction of the muscle)

| Compound | ED20 (myocardial ischemia) [µmol/kg] | lethal dose (death of two out of three animals within 48 hours) (male NMRI mice) [mg/kg] | IC50 [3, 4] [nM] | also measured |
| --- | --- | --- | --- | --- |
| NNC(=O)c1cccc(Cc2c[nH]cn2)c1O [Compound D, 2-hydroxy-3-[(1H-imidazol-4-yl)methyl]-benzohydrazide] | 3 | 232 | – | IC30 [1]: 220 nM |
| CNC(=O)c1cccc(Cc2c[nH]cn2)c1O.Cl [C, 2-hydroxy-3-[(1H-imidazol-4-yl)methyl]-N-methylbenzamide hydrochloride] | 0.3 | 267 | – | reduction in ST-segment ([2]; dose 0.32 μmole/kg i.v.): 50%; reduction in the pulse rate ([2]; dose 0.32 μmole/kg i.v.): 1 beats/min.; IC30 [1]: 130 nM |
| NC(=O)c1cc(Cc2c[nH]cn2)ccc1O [G, 2-hydroxy-5-[(1H-imidazol-4-yl)methyl]-benzamide] | < 1 | 651 | – | – |
| Cc1ccc(Cc2c[nH]cn2)c(O)c1C(N)=O.Cl [K, 2-hydroxy-3-[(1H-imidazol-4-yl)methyl]-6-methylbenzamide hydrochloride] | 0.32 | > 268 | – | – |
| Cl.O=C(NO)c1cccc(Cc2c[nH]cn2)c1O [M, N,2-dihydroxy-3-[(1H-imidazol-4-yl)methyl]-benzamide hydrochloride] | – | > 288 | 400 | – |
| CC(c1c[nH]cn1)c1cccc(C(N)=O)c1O.Cl (single isomer, unassigned; (+)) [P, (+)-2-hydroxy-3-[1-(1H-imidazol-4-yl)ethyl]-benzamide hydrochloride] | – | 294 | 2 | – |
| CC(c1c[nH]cn1)c1cccc(C(N)=O)c1O.Cl (stereo not drawn) [B, 2-hydroxy-3-[1-(1H-imidazol-4-yl)ethyl]-benzamide hydrochloride] | 0.02 | 267 | 3 | IC30 [1]: 0.75 nM; IC50 ([3]; in the presence of 10^-6 mole/l of α-yohimbine, read-out: concentration required for reducing muscle contraction intensity by 50%): > 1000 nM |
| Cl.NC(=O)c1c(O)ccc(Cc2c[nH]cn2)c1O [I, 2,6-dihydroxy-3-[(1H-imidazol-4-yl)methyl]-benzamide hydrochloride] | 0.32 | > 270 | 300 | – |
| Cc1c(Cc2c[nH]cn2)ccc(O)c1C(N)=O.Cl [O, 6-hydroxy-3-[(1H-imidazol-4-yl)methyl]-2-methylbenzamide hydrochloride] | – | > 268 | – | – |
| CC(C)NCC(O)COc1cccc2ccccc12 (stereo not drawn) [propranolol, 1-(isopropylamino)-3-(1-naphthyloxy)-2-propanol, reference compound] | 2 | – | – | reduction in ST-segment ([2]; dose 1.0 μmole/kg i.v.): 74%; reduction in the pulse rate ([2]; dose 1.0 μmole/kg i.v.): 35 beats/min. |
| Cl.O=C(NCCO)c1cccc(Cc2c[nH]cn2)c1O [E, 2-hydroxy-N-(2-hydroxyethyl)-3-[(1H-imidazol-4-yl)methyl]-benzamide hydrochloride] | < 3 | 893 | 60000 | – |
| COc1c(Cc2c[nH]cn2)cccc1C(N)=O.Cl [F, 3-[(1H-imidazol-4-yl)methyl]-2-methoxybenzamide hydrochloride] | < 3 | 802 | 70000 | IC30 [1]: 70 nM |
| CC(c1c[nH]cn1)c1ccc(O)c(C(N)=O)c1O.Cl (stereo not drawn) [N, 2,6-dihydroxy-3-[1-(1H-imidazol-4-yl)ethyl]-benzamide hydrochloride] | – | 284 | – | – |
| CC(C)(C)c1cc(Cc2c[nH]cn2)c(O)c(C(N)=O)c1 [J, 5-tert-butyl-2-hydroxy-3-[(1H-imidazol-4-yl)methyl]-benzamide] | – | – | 30000 | – |
| Cc1ccc(C(N)=O)c(O)c1Cc1c[nH]cn1 [L, 2-hydroxy-3-[(1H-imidazol-4-yl)methyl]-4-methylbenzamide] | – | 231 | 30 | – |
| CN(C)C(=O)c1cccc(Cc2c[nH]cn2)c1O [H, 2-hydroxy-3-[(1H-imidazol-4-yl)methyl]-N,N-dimethylbenzamide] | – | 245 | – | – |
| Clc1cccc(Cl)c1N=C1NCCN1 [clonidine, reference compound] | – | – | 20 | IC30 [1]: 3.2 nM |
